Laboratory results published in patent US8865734B2 (priority 2010, dated 2014).
Converted amounts (≈) assume the structure as drawn.

Legend:
[1] = test system: in vitro grown Mycobacteria (M. tuberculosis); assay: QUM: Quantification of in vitro grown Mycobacteria (in vitro growth fluorescence assay); format: cell-based; details: Mycobacterium tuberculosis; MIC, 80% bacterial growth inhibition; in vitro growth; read-out: QUM
How it was run: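 Mycobacterium tuberculosis grown in vitro was quantified by fluorescence across compound dose responses. MIC is defined as the minimum concentration producing 80% growth inhibition.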

Structure (SMILES) | MIC [1] | melting point
CCc1nc2cc(Cl)ccn2c1C(=O)NCc1ccc2oc(C3CCCCC3)nc2c1 [Compound 340, 7-Chloro-N-((2-cyclohexylbenzo[d]oxazol-5-yl)methyl)-2-ethylimidazo[1,2-a]pyridine-3-carboxamide] | < 1 µM | 163 °C
CCc1nc2ccccn2c1C(=O)NCc1ccc(OCc2ccc(OC(F)(F)F)cc2)cc1 [Compound 260, 2-Ethyl-N-(4-(4-(trifluoromethoxy)benzyloxy)benzyl)imidazo[1,2-a]pyridine-3-carboxamide] | < 1 µM | 138.7 °C
CCc1nc2ccc(Cl)cn2c1C(=O)NCc1ccc(N2CCN3CCCC3C2)cc1 (stereo not shown) [Compound 266, 6-Chloro-2-ethyl-N-(4-(hexahydropyrrolo[1,2-a]pyrazin-2(1H)-yl)benzyl)imidazo[1,2-a]pyridine-3-carboxamide] | > 20 µM | 163 °C
CCc1nc2c(F)cccn2c1C(=O)NCc1ccc(Oc2ccc(OC(F)(F)F)cc2)cc1 [Compound 257, 2-Ethyl-8-fluoro-N-(4-(4-(trifluoromethoxy)phenoxy)benzyl)imidazo[1,2-a]pyridine-3-carboxamide] | < 1 µM | 105.6 °C
CCc1nc2c(OC(F)F)cccn2c1C(=O)NCc1ccc(N2CCOCC2)cc1 [Compound 319, 8-(Difluoromethoxy)-2-ethyl-N-(4-morpholinobenzyl)imidazo[1,2-a]pyridine-3-carboxamide] | 1 to 20 µM (≈ 0.43 to 8.61 µg/mL) | 163 °C
CCc1nc2ccc(Cl)cn2c1-c1nc(Cc2ccc(Oc3ccc(F)cc3)cc2)no1 [Compound 245, 5-(6-Chloro-2-ethylimidazo[1,2-a]pyridin-3-yl)-3-(4-(4-fluorophenoxy)benzyl)-1,2,4-oxadiazole] | 1 to 20 µM (≈ 0.449 to 8.98 µg/mL) | 129.9 °C
CCc1nc2ccccn2c1C(=O)NCc1ccc(N2CCC(c3ccc(OC(F)(F)F)cc3)CC2)cc1 [Compound 288, 2-Ethyl-N-(4-(4-(4-(trifluoromethoxy)phenyl)piperidin-1-yl)benzyl)imidazo[1,2-a]pyridine-3-carboxamide] | < 1 µM | 146 °C
C=C1CCN(c2ccc(CNC(=O)c3c(CC)nc4cc(Cl)ccn34)cc2)CC1 [Compound 271, 7-Chloro-2-ethyl-N-(4-(4-methylenepiperidin-1-yl)benzyl)imidazo[1,2-a]pyridine-3-carboxamide] | < 1 µM | 168.3 °C
CCc1nc2cc(Cl)ccn2c1C(=O)NCc1ccc(N2CCC(C(F)(F)F)CC2)cc1 [Compound 276, 7-Chloro-2-ethyl-N-(4-(4-(trifluoromethyl)piperidin-1-yl)benzyl)imidazo[1,2-a]pyridine-3-carboxamide] | > 20 µM | 209.4 °C
CCc1nc2ccc(Cl)cn2c1C(=O)NCc1ccc(N2CCC(c3ccccc3)CC2)cc1 [Compound 284, 6-Chloro-2-ethyl-N-(4-(4-phenylpiperidin-1-yl)benzyl)imidazo[1,2-a]pyridine-3-carboxamide] | < 1 µM | 138.2 °C
CCc1nc2cc(Cl)ccn2c1C(=O)NCc1ccc(N2CCC(O)(c3ccc(F)cc3)CC2)cc1 [Compound 342, 7-Chloro-2-ethyl-N-(4-(4-(4-fluorophenyl)-4-hydroxypiperidin-1-yl)benzyl)imidazo[1,2-a]pyridine-3-carboxamide] | < 1 µM | 199 °C
CCc1nc2ccc(Cl)cn2c1C(=O)NCc1ccc(N2CCC(C(F)(F)F)CC2)cc1 [Compound 275, 6-Chloro-2-ethyl-N-(4-(4-(trifluoromethyl)piperidin-1-yl)benzyl)imidazo[1,2-a]pyridine-3-carboxamide] | 1 to 20 µM (≈ 0.465 to 9.3 µg/mL) | 197.9 °C
CCc1nc2ccc(Cl)cn2c1C(=O)NCc1ccc(N2CCC(O)(c3ccc(F)cc3)CC2)cc1 [Compound 341, 6-Chloro-2-ethyl-N-(4-(4-(4-fluorophenyl)-4-hydroxypiperidin-1-yl)benzyl)imidazo[1,2-a]pyridine-3-carboxamide] | < 1 µM | 173.5 °C
CCc1nc2c(OC(F)F)cccn2c1C(=O)NCc1ccc(N2CCN(c3ccc(F)cc3)CC2)cc1 [Compound 304, 8-(Difluoromethoxy)-2-ethyl-N-(4-(4-(4-fluorophenyl)piperazin-1-yl)benzyl)imidazo[1,2-a]pyridine-3-carboxamide] | < 1 µM | 186.3 °C
CCc1nc2cc(Cl)ccn2c1C(=O)NCc1cccc(-c2ccc(OC(F)(F)F)cc2)c1 [Compound 248, 7-Chloro-2-ethyl-N-((4′-(trifluoromethoxy)biphenyl-3-yl)methyl)imidazo[1,2-a]pyridine-3-carboxamide] | < 1 µM | 192.6 °C
CCc1nc2cc(C)ccn2c1C(=O)NCc1ccc(Oc2ccc(OC(F)(F)F)cc2)cc1 [Compound 256, 2-Ethyl-7-methyl-N-(4-(4-(trifluoromethoxy)phenoxy)benzyl)imidazo[1,2-a]pyridine-3-carboxamide] | < 1 µM | 133.6 °C
CCc1nc2ccc(Cl)cn2c1C(=O)NCc1ccc(N2CCC(C(N)=O)CC2)cc1 [Compound 343, N-(4-(4-Carbamoylpiperidin-1-yl)benzyl)-6-chloro-2-ethylimidazo[1,2-a]pyridine-3-carboxamide] | < 1 µM | 257.5 °C
CCc1nc2ccc(C)cn2c1C(=O)NCc1ccc(N2CCN(c3ccc(F)cc3)CC2)cc1 [Compound 308, 2-Ethyl-N-(4-(4-(4-fluorophenyl)piperazin-1-yl)benzyl)-6-methylimidazo[1,2-a]pyridine-3-carboxamide] | < 1 µM | 187.6 °C
CCc1nc2cc(Cl)ccn2c1C(=O)NCc1ccc(N2CCC(F)(F)CC2)cc1 [Compound 278, 7-Chloro-N-(4-(4,4-difluoropiperidin-1-yl)benzyl)-2-ethylimidazo[1,2-a]pyridine-3-carboxamide] | 1 to 20 µM (≈ 0.433 to 8.66 µg/mL) | 166.3 °C
CCc1nc2cc(Cl)ccn2c1C(=O)NCc1ccc(N2CCC(C(N)=O)CC2)cc1 [Compound 344, N-(4-(4-Carbamoylpiperidin-1-yl)benzyl)-7-chloro-2-ethylimidazo[1,2-a]pyridine-3-carboxamide] | 1 to 20 µM (≈ 0.44 to 8.8 µg/mL) | 244 °C
CCc1nc2ccc(Br)cn2c1C(=O)NCc1ccc(Oc2ccc(OC(F)(F)F)cc2)cc1 [Compound 254, 6-Bromo-2-ethyl-N-(4-(4-(trifluoromethoxy)phenoxy)benzyl)imidazo[1,2-a]pyridine-3-carboxamide] | < 1 µM | 152.9 °C
CCc1nc2cc(Cl)ccn2c1C(=O)NCc1ccc(N2CCC(COc3ccc(OC(F)(F)F)cc3)CC2)cc1 [Compound 299, 7-Chloro-2-ethyl-N-(4-(4-((4-(trifluoromethoxy)phenoxy)methyl)piperidin-1-yl)benzyl)imidazo[1,2-a]pyridine-3-carboxamide] | < 1 µM | 189.5 °C
CCc1nc2ccc(Br)cn2c1C(=O)NCc1ccc(OCc2ccc(OC(F)(F)F)cc2)cc1 [Compound 259, 6-Bromo-2-ethyl-N-(4-(4-(trifluoromethoxy)benzyloxy)benzyl)imidazo[1,2-a]pyridine-3-carboxamide] | < 1 µM | 189.7 °C
